Data from patent US20030095933A1, “Anti-aging skin care composition and uses thereof” (priority 2001, published 2003).

Legend:
[1] = test system: facial skin of a human subject; test: Topical application of aqueous solution to facial skin of a human subject before bedtime
Description: Topical Application of an Aqueous Solution of Vitamin C. A one gram tablet of Vitamin C (Ascorbic acid; GNC Brand, GNC, Inc.) was dissolved to completion in 1 tablespoon of water. The resulting solution was applied to the facial skin of a human subject immediately before bedtime.
Direct Comparisons of Aqueous Vitamin C Solution to Aqueous Vitamin C Solutions Containing Additional Ingredients. Several direct comparisons were performed to determine whether the addition of additional components could improve the results observed with Vitamin C alone. In the first of these tests, an aqueous solution comprising Vitamin C alone (3 g) was applied to one side of the subject's face immediately before bedtime, while an aqueous solution comprising 3 g of Vitamin C and 600 mg of N-acetyl-cysteine (GNC, Inc.) was applied to the other half of the subject's face at the same time.
A second comparison was then performed. In this study, an aqueous solution comprising Vitamin C (3 g) and Vitamin B5 (500 mg, obtained from GNC, Inc.) was applied to one side of the subject's face immediately before bedtime, while an aqueous solution comprising 3 g of Vitamin C, 600 mg of N-acetyl-cysteine and 10 mg zinc (GNC, Inc.) was applied to the other half of the subject's face at the same time.
Tablets containing 3 g of Vitamin C, 100 mg of Vitamin B1, 500 mg of Vitamin B5 and 500 mg of N-acetyl-cysteine, all obtained from obtained from GNC, Inc., were ground into a powder and mixed together. The mixture was then added to one tablespoon of water and allowed to dissolve to completion, which took approximately 10 hrs. The resulting solution was applied to the facial skin of a human subject immediately before bedtime.
Optimization of ranges for each of the components was determined. For example, the amount of Vitamin C present in the composition described above in Example 2 was varied from 0 g to 5 g.
In an attempt to reduce the slight irritation caused by application of the anti-aging skin care composition and to enhance its effects on fine lines and wrinkles, 100 mg of lipoic acid was added to the anti-aging skin care composition comprising 3 g of Vitamin C, 100 mg of Vitamin B1, 500 mg of Vitamin B5 and 500 mg of N-acetyl-cysteine. […] The resulting solution was again applied to the facial skin of a human subject immediately before bedtime.

[2] = Miscibility of Vitamin E with the aqueous Vitamin C solution; assay type: physicochemical; details: oils and powders containing Vitamin E
Description: Addition of Vitamin E Prevented by Poor Solubility. […] Thus, no further studies of the effects of the addition of Vitamin E to the various anti-aging skin care compositions described herein were performed.

Compound: O=C1O[C@H]([C@@H](O)CO)C(O)=C1O [Vitamin C, Ascorbic acid]
- redness or burning of the facial skin upon waking ([1]; after approximately 6-8 hrs of sleep): slight redness of the facial skin
- appearance of the facial skin upon waking ([1]; after approximately 6-8 hrs of sleep, overnight application): noticeably improved
- sensation upon initial contact with the facial skin ([1]; immediately after application, before the solution dried): slight burning sensation
- redness and irritation following subsequent applications ([1]; subsequent applications, dose of Vitamin C increased to 2 g and up to 5 g): subsided greatly

Compound: Vitamin E
- miscibility with the aqueous solution containing Vitamin C [2]: neither oils nor powders containing Vitamin E were miscible
